# Measured values: ChEMBL document CHEMBL3885881, “DrugMatrix”
# Species: Rattus norvegicus
# Experiment: DrugMatrix - Regimen: Daily Repeat
# Format: toxicity, organism-based, Sprague-Dawley
# Parameters: regimen Daily Repeat, gender Male, age 6-8 weeks
# Details: in vivo, po, 740 mg/kg, route oral GAVAGE, dose level High, vehicle .5 % CMC; for ABSOLUTE BASOPHIL / ABSOLUTE EOSINOPHIL / ABSOLUTE LYMPHOCYTE / ABSOLUTE MONOCYTE / ABSOLUTE SEGMENTED NEUTROPHIL / BASOPHIL / EOSINOPHIL / ERYTHROCYTE COUNT / HEMATOCRIT / HEMOGLOBIN / LEUKOCYTE COUNT / LYMPHOCYTE / MEAN CORPUSCULAR HEMOGLOBIN / MEAN CORPUSCULAR HEMOGLOBIN CONCENTRATION / MEAN CORPUSCULAR VOLUME / MONOCYTE / NEUTROPHIL / NUCLEATED RED BLOOD CELLS / PLATELET COUNT: tissue Blood; for ALANINE AMINOTRANSFERASE / ALBUMIN / ALKALINE PHOSPHATASE / ASPARTATE AMINOTRANSFERASE / BLOOD UREA NITROGEN / CARBON DIOXIDE / CHLORIDE / CHOLESTEROL / CREATININE / GLUCOSE / LACTATE DEHYDROGENASE / LIPASE / PHOSPHORUS / POTASSIUM / SODIUM / TOTAL BILIRUBIN / TOTAL PROTEIN / URIC ACID: tissue Plasma
smiles,measurement,setting,value
COc1ccccc1[N+](=O)[O-] [2-NITROANISOLE],ABSOLUTE BASOPHIL,"72 h, time 3 day",0 CELLS/uL
same,ABSOLUTE EOSINOPHIL,"72 h, time 3 day",109.33 CELLS/uL
same,ABSOLUTE LYMPHOCYTE,"72 h, time 3 day",13522 CELLS/uL
same,ABSOLUTE MONOCYTE,"72 h, time 3 day",1089.33 CELLS/uL
same,ABSOLUTE SEGMENTED NEUTROPHIL,"72 h, time 3 day",2512.67 CELLS/uL
same,BASOPHIL,"72 h, time 3 day",0%
same,EOSINOPHIL,"72 h, time 3 day",0.67%
same,ERYTHROCYTE COUNT,"72 h, time 3 day",5.38 x10E6/uL
same,HEMATOCRIT,"72 h, time 3 day",32.17%
same,HEMOGLOBIN,"72 h, time 3 day",11.9 G/DL
same,LEUKOCYTE COUNT,"72 h, time 3 day",17.23 x10E3/uL
same,LYMPHOCYTE,"72 h, time 3 day",78.67%
same,MEAN CORPUSCULAR HEMOGLOBIN,"72 h, time 3 day",22.1 pg
same,MEAN CORPUSCULAR HEMOGLOBIN CONCENTRATION,"72 h, time 3 day",37 G/DL
same,MEAN CORPUSCULAR VOLUME,"72 h, time 3 day",59.83 fL
same,MONOCYTE,"72 h, time 3 day",6.33%
same,NEUTROPHIL,"72 h, time 3 day",14.33%
same,NUCLEATED RED BLOOD CELLS,"72 h, time 3 day",0 /100WBC
same,PLATELET COUNT,"72 h, time 3 day",1241.67 x10E3/uL
same,ALANINE AMINOTRANSFERASE,"72 h, time 3 day",84.67 u/L
same,ALBUMIN,"72 h, time 3 day",4.37 G/DL
same,ALKALINE PHOSPHATASE,"72 h, time 3 day",448.33 u/L
same,ASPARTATE AMINOTRANSFERASE,"72 h, time 3 day",103.67 u/L
same,BLOOD UREA NITROGEN,"72 h, time 3 day",14 mg/dL
same,CARBON DIOXIDE,"72 h, time 3 day",22.67 mmol/L
same,CHLORIDE,"72 h, time 3 day",101.67 MEQ/L
same,CHOLESTEROL,"72 h, time 3 day",95.67 mg/dL
same,CREATININE,"72 h, time 3 day",0.18 mg/dL
same,GLUCOSE,"72 h, time 3 day",145 mg/dL
same,LACTATE DEHYDROGENASE,"72 h, time 3 day",412.67 u/L
same,LIPASE,"72 h, time 3 day",9.33 u/L
same,PHOSPHORUS,"72 h, time 3 day",11.6 mg/dL
same,POTASSIUM,"72 h, time 3 day",6.07 MEQ/L
same,SODIUM,"72 h, time 3 day",142.23 MEQ/L
same,TOTAL BILIRUBIN,"72 h, time 3 day",0.23 mg/dL
same,TOTAL PROTEIN,"72 h, time 3 day",5.93 G/DL
same,URIC ACID,"72 h, time 3 day",1.7 mg/dL
same,ABSOLUTE BASOPHIL,"120 h, time 5 day",0 CELLS/uL
same,ABSOLUTE EOSINOPHIL,"120 h, time 5 day",0 CELLS/uL
same,ABSOLUTE LYMPHOCYTE,"120 h, time 5 day",12322.33 CELLS/uL
same,ABSOLUTE MONOCYTE,"120 h, time 5 day",57 CELLS/uL
same,ABSOLUTE SEGMENTED NEUTROPHIL,"120 h, time 5 day",3254 CELLS/uL
same,BASOPHIL,"120 h, time 5 day",0%
same,EOSINOPHIL,"120 h, time 5 day",0%
same,ERYTHROCYTE COUNT,"120 h, time 5 day",5.04 x10E6/uL
same,HEMATOCRIT,"120 h, time 5 day",30.5%
same,HEMOGLOBIN,"120 h, time 5 day",10.83 G/DL
same,LEUKOCYTE COUNT,"120 h, time 5 day",15.63 x10E3/uL
same,LYMPHOCYTE,"120 h, time 5 day",79%
same,MEAN CORPUSCULAR HEMOGLOBIN,"120 h, time 5 day",21.5 pg
same,MEAN CORPUSCULAR HEMOGLOBIN CONCENTRATION,"120 h, time 5 day",35.5 G/DL
same,MEAN CORPUSCULAR VOLUME,"120 h, time 5 day",60.6 fL
same,MONOCYTE,"120 h, time 5 day",0.33%
same,NEUTROPHIL,"120 h, time 5 day",20.67%
same,NUCLEATED RED BLOOD CELLS,"120 h, time 5 day",1 /100WBC
same,PLATELET COUNT,"120 h, time 5 day",1041 x10E3/uL
same,ALANINE AMINOTRANSFERASE,"120 h, time 5 day",76.67 u/L
same,ALBUMIN,"120 h, time 5 day",4.67 G/DL
same,ALKALINE PHOSPHATASE,"120 h, time 5 day",401.67 u/L
same,ASPARTATE AMINOTRANSFERASE,"120 h, time 5 day",101 u/L
same,BLOOD UREA NITROGEN,"120 h, time 5 day",14.33 mg/dL
same,CARBON DIOXIDE,"120 h, time 5 day",33 mmol/L
same,CHLORIDE,"120 h, time 5 day",98.33 MEQ/L
same,CHOLESTEROL,"120 h, time 5 day",92.33 mg/dL
same,CREATININE,"120 h, time 5 day",0.15 mg/dL
same,GLUCOSE,"120 h, time 5 day",127 mg/dL
same,LACTATE DEHYDROGENASE,"120 h, time 5 day",114.33 u/L
same,LIPASE,"120 h, time 5 day",9.67 u/L
same,PHOSPHORUS,"120 h, time 5 day",12.23 mg/dL
same,POTASSIUM,"120 h, time 5 day",6 MEQ/L
same,SODIUM,"120 h, time 5 day",144.43 MEQ/L
same,TOTAL BILIRUBIN,"120 h, time 5 day",0.23 mg/dL
same,TOTAL PROTEIN,"120 h, time 5 day",6.53 G/DL
same,URIC ACID,"120 h, time 5 day",0.9 mg/dL
same,ABSOLUTE BASOPHIL,"[…], time 14 day",0 CELLS/uL
same,ABSOLUTE EOSINOPHIL,"[…], time 14 day",157.6 CELLS/uL
same,ABSOLUTE LYMPHOCYTE,"[…], time 14 day",18755.2 CELLS/uL
same,ABSOLUTE MONOCYTE,"[…], time 14 day",504.8 CELLS/uL
same,ABSOLUTE SEGMENTED NEUTROPHIL,"[…], time 14 day",3782.4 CELLS/uL
same,BASOPHIL,"[…], time 14 day",0%
same,EOSINOPHIL,"[…], time 14 day",0.8%
same,ERYTHROCYTE COUNT,"[…], time 14 day",4.9 x10E6/uL
same,HEMATOCRIT,"[…], time 14 day",34.42%
same,HEMOGLOBIN,"[…], time 14 day",12.78 G/DL
same,LEUKOCYTE COUNT,"[…], time 14 day",23.2 x10E3/uL
same,LYMPHOCYTE,"[…], time 14 day",80.8%
same,MEAN CORPUSCULAR HEMOGLOBIN,"[…], time 14 day",26.14 pg
same,MEAN CORPUSCULAR HEMOGLOBIN CONCENTRATION,"[…], time 14 day",37.14 G/DL
same,MEAN CORPUSCULAR VOLUME,"[…], time 14 day",70.28 fL
same,MONOCYTE,"[…], time 14 day",2.2%
same,NEUTROPHIL,"[…], time 14 day",16.2%
same,NUCLEATED RED BLOOD CELLS,"[…], time 14 day",0 /100WBC
same,PLATELET COUNT,"[…], time 14 day",1231 x10E3/uL
same,ALANINE AMINOTRANSFERASE,"[…], time 14 day",73.4 u/L
same,ALBUMIN,"[…], time 14 day",4.84 G/DL
same,ALKALINE PHOSPHATASE,"[…], time 14 day",271.2 u/L
same,ASPARTATE AMINOTRANSFERASE,"[…], time 14 day",85.6 u/L
same,BLOOD UREA NITROGEN,"[…], time 14 day",17 mg/dL
same,CARBON DIOXIDE,"[…], time 14 day",31.6 mmol/L
same,CHLORIDE,"[…], time 14 day",99.2 MEQ/L
same,CHOLESTEROL,"[…], time 14 day",77 mg/dL
same,CREATININE,"[…], time 14 day",0.21 mg/dL
same,GLUCOSE,"[…], time 14 day",125 mg/dL
same,LACTATE DEHYDROGENASE,"[…], time 14 day",356.6 u/L
same,LIPASE,"[…], time 14 day",9 u/L
same,PHOSPHORUS,"[…], time 14 day",11.68 mg/dL
same,POTASSIUM,"[…], time 14 day",6.84 MEQ/L
same,SODIUM,"[…], time 14 day",142.78 MEQ/L
same,TOTAL BILIRUBIN,"[…], time 14 day",0.28 mg/dL
same,TOTAL PROTEIN,"[…], time 14 day",6.82 G/DL
same,URIC ACID,"[…], time 14 day",1.6 mg/dL
